Test results published in article PMC9699089 (Pathogens, 2022).

What was measured:
[1] = test system: Plasmodium falciparum CQ-resistant strain W2; experiment: In vitro antiplasmodial activity, SYBR Green I fluorescence-based method, strain W2; assay type: cell-based; conditions: CQ-resistant strain W2, 48 h incubation, mean of three independent experiments, read-out: P. falciparum Strains IC50 Values W2
Method: (§1) The in vitro antiplasmodial activities were tested over concentrations ranging from 39 nM to 40 µM against culture-adapted Plasmodium falciparum reference strains 3D7 and W2. […] These two strains are obtained from the collection of the National Museum of Natural History (Paris, France). The parasites were cultivated in RPMI medium (Sigma Aldrich, Lyon, France) supplemented with 0.5% Albumax I (Life Technologies Corporation, Paisley, UK), hypoxanthine (Sigma Aldrich), and gentamicin (Sigma Aldrich) with human erythrocytes and were incubated at 37 °C in a candle jar, as described previously. The P. falciparum drug susceptibility test was carried out in 96-well flat bottom sterile plates in a final volume of 250 µL. After 48 h incubation period with the drugs, quantities of DNA in treated and control cultures of parasites in human erythrocytes were quantified using the SYBR Green I (Sigma Aldrich) fluorescence-based method. Briefly, after incubation, plates were frozen at -20 °C until use. Plates were then thawed for 2 h at room temperature, and 100 µL of each homogenized culture was transferred to a well of a 96-well flat bottom sterile black plate (Nunc, Inc.) that contained 100 µL of the SYBR Green I lysis buffer (2xSYBR Green, 20 mM Tris base pH 7.5, 5 mM EDTA, 0.008% w/v saponin, 0.08% w/v Triton X-100). […] Plates were incubated for 1 h at room temperature and then read on a fluorescence plate reader (Tecan, Austria) using excitation and emission wavelengths of 485 and 535 nm, respectively.

[2] = test system: Plasmodium falciparum CQ-sensitive strain 3D7; experiment: In vitro antiplasmodial activity, SYBR Green I fluorescence-based method, strain 3D7; assay type: cell-based; conditions: CQ-sensitive strain 3D7, 48 h incubation, mean of three independent experiments, read-out: P. falciparum Strains IC50 Values 3D7
Method: as §1

[3] = test system: L. donovani (MHOM/IN/00/DEVI) promastigotes; experiment: In vitro antileishmanial activity on promastigotes, MTT assay; assay type: cell-based; conditions: Leishmania donovani, 72 h incubation, mean +/- SD of three independent experiments
Method: L. donovani (MHOM/IN/00/DEVI) used in this study was provided by the CNR Leishmania (Montpellier, France). The effects of the tested compounds on the growth of L. donovani (MHOM/IN/00/DEVI) promastigotes were assessed by MTT assay. Briefly, promastigotes in log-phase in Schneider’s medium supplemented with 20% fetal calf serum (FCS), 2 mM L-glutamine and antibiotics (100 U/mL penicillin and 100 µg/mL streptomycin), were incubated at an average density of 10^6 parasites/mL in sterile 96-well plates with various concentrations of compounds previously dissolved in DMSO (final concentration less than 0.5% v/v), in duplicate. […] Duplicate assays were performed for each sample. After the 72 h incubation period at 27 °C, parasite metabolic activity was determined. Each well was microscopically examined for precipitate formation. To each well was added 10 µL of 10 mg/mL MTT [3-(4,5-dimethylthiazol-2-yl)-2,5-diphenyltetrazolium bromide)] solution followed by 4 h incubation time. The enzyme reaction was stopped by addition of 100 µL of 50% isopropanol/10% sodium dodecyl sulfate. Plates were vigorously shaken (300 rpm) for 10 min, and the absorbance was measured at 570 nm with 630 nm as reference wavelength in a BIOTEK ELx808 Absorbance Microplate Reader (Agilent Technologies, Les Ulis, France). […] IC50 of the parasite’s growth (half maximal inhibitory concentration or IC50 values) were then calculated from the obtained experimental results using a previously described regression program. IC50 values were calculated from three independent experiments.

[4] = test system: T. brucei brucei AnTat 1.9; experiment: In vitro antitrypanosomal activity, Alamar Blue assay; assay type: cell-based, Trypanosoma brucei brucei; conditions: Trypanosoma brucei, slender bloodstream trypomastigotes, AnTat 1.9 strain; mean +/- SD of three independent experiments; read-out: Trypanosoma brucei brucei IC50 Values Trypanos Antat 1.9
Method: The effects of the tested compounds on the growth of T. brucei brucei were assessed using an Alamar Blue® assay described by Räz et al. T. brucei brucei AnTat 1.9 ([…], Belgium) was cultured in MEM with Earle's salts, supplemented according to the protocol of Baltz et al. […] All doses were tested in duplicate. Appropriate controls treated with solvents 0.9% NaCl or DMSO or with suramin, pentamidine, eflornithine, and fexinidazole (reference drugs purchased from Sigma Aldrich and Fluorochem, UK) were added to each set of experiments. After 69 h incubation period at 37 °C, 10 μL of the viability marker Alamar Blue (Fisher) was added to each well, and the plates were incubated for 5 h. The plates were read in a PerkinElmer ENSPIRE (Germany) microplate reader using an excitation wavelength of 530 nm and an emission wavelength of 590 nm.

[5] = Cytotoxicity evaluation, MTT assay; assay type: cell-based, human; conditions: human
Method: These cells are a commonly used human hepatocarcinoma-derived cell line that has characteristics similar to those of primary hepatocytes. These cells express many hepatocyte-specific metabolic enzymes, thus enabling the cytotoxicity of tested product metabolites to be evaluated. […] Duplicate assays were performed for each sample. Each well was microscopically examined for precipitate formation before the medium was aspirated from the wells. After aspiration, 100 µL of MTT solution (0.5 mg/mL in medium without FCS) were then added to each well. […] The MTT solution was removed, and DMSO (100 µL) was added to dissolve the resulting blue formazan crystals. Plates were shaken vigorously (300 rpm) for 5 min. The absorbance was measured at 570 nm with 630 nm as reference wavelength in a BIO-TEK ELx808 Absorbance Microplate Reader. DMSO was used as blank and doxorubicin (Sigma Aldrich) as positive control. Cell viability was calculated as percentage of control (cells incubated without compound). The CC50 was determined from the dose-response curve using TableCurve 2D V5.0 software (Systat Software, Palo Alto, CA, USA).

[6] = test system: Plasmodium telomeric sequence FPf1T G-quadruplex; experiment: FRET melting assay, FPf1T; assay type: binding, Plasmodium falciparum; conditions: compound 2 μM, oligonucleotide 0.2 μM, K+ conditions
Method: (§2) These were performed with dual-labeled oligonucleotides mimicking the Plasmodium telomeric sequences FPf1T [FAM-5′(GGGTTTA)3-GGG3′-TAMRA] and FPf8T [FAM-5′(GGGTTCA)3GGG3′-TAMRA], the Trypanosoma 9 and 11 chromosomic sequence FTrypBT (also named FEBR1T) [FAM-5′[…]3′-TAMRA], the human telomeric sequence F21T [FAM-(GGGTTA)3-GGG3′-TAMRA] and the human duplex sequence FdxT [FAM5′-[…]-hexaethyleneglycol-[…]3′-TAMRA] [27, 31, 47]. The oligonucleotides were pre-folded in 10 mM lithium cacodylate buffer (pH 7.2), with 10 mM KCl and 90 mM LiCl (K^+ condition). The FAM emissions were recorded at 516 nm using a 492-nm excitation wavelength in the absence and presence of a single compound as a function of temperature (25 to 95 °C) in 96-well microplates using a Stratagene MX3000P real-time PCR device at a rate of 1 °C∙min-1. Data were normalized between 0 and 1, and the required temperature for half-denaturation of oligonucleotides corresponding to the emission value of 0.5 was taken as the Tm. Each experiment was performed in duplicate with 0.2 µM of labeled oligonucleotide and 2 µM of compound under K^+ condition. For each compound, three independent experiments were carried out.

[7] = test system: Plasmodium telomeric sequence FPf8T G-quadruplex; experiment: FRET melting assay, FPf8T; assay type: binding, Plasmodium falciparum; conditions: compound 2 μM, oligonucleotide 0.2 μM, K+ conditions
Method: as §2

[8] = test system: Trypanosoma 9 and 11 chromosomic sequence FTrypBT (FEBR1T) G-quadruplex; experiment: FRET melting assay, FtrypBT; assay type: binding, Trypanosoma brucei brucei; conditions: compound 2 μM, oligonucleotide 0.2 μM, K+ conditions
Method: as §2

[9] = test system: human telomeric sequence F21T G-quadruplex; experiment: FRET melting assay, F21T; assay type: binding; conditions: compound 2 μM, oligonucleotide 0.2 μM, K+ conditions
Method: as §2

[10] = test system: human duplex sequence FdxT; experiment: FRET melting assay, duplex control FdxT; assay type: binding; conditions: compound 2 μM, oligonucleotide 0.2 μM, K+ conditions
Method: as §2

Row | Structure (SMILES) | IC50 [1] [µM] | IC50 [2] [µM] | IC50 [3] [µM] | IC50 [4] [µM] | CC50 at 72 h [5] [µM] | ΔTm FPf1T [6] [°C] | ΔTm FPf8T [7] [°C] | ΔTm FtrypBT [8] [°C] | ΔTm F21T [9] [°C] | ΔTm FdxT [10] [°C]
1 | CN1CCN(CCNCc2cc(-c3ccccc3)c3ccc4c(-c5ccccc5)cc(CNCCN5CCN(C)CC5)nc4c3n2)CC1 [Compound 1e] | 0.92 ± 0.18 | 2.16 ± 0.32 | > 12.5 | 0.45 ± 0.03 | 10.5 ± 1.27 | 9.4 | 10.5 | 8.0 | 9.6 | −1.6
2 | CN1CCN(CCCNCc2cc(-c3ccccc3)c3ccc4c(-c5ccccc5)cc(CNCCCN5CCN(C)CC5)nc4c3n2)CC1 [Compound 1f] | 11.3 ± 2.93 | 21.5 ± 4.1 | > 12.5 | 0.97 ± 0.11 | 8.62 ± 0.5 | 8.8 | 10.9 | 9.1 | 10.8 | −0.5
3 | c1ccc(-c2cc(CNCCN3CCCCC3)nc3c2ccc2c(-c4ccccc4)cc(CNCCN4CCCCC4)nc23)cc1 [Compound 1j] | 2.6 ± 0.55 | 1.59 ± 0.59 | 2.52 ± 0.2 | 0.2 ± 0.02 | 1.64 ± 0.14 | 5.6 | 7.3 | 7.2 | 7.7 | 0.2
4 | c1ccc(-c2cc(CNCCCN3CCCCC3)nc3c2ccc2c(-c4ccccc4)cc(CNCCCN4CCCCC4)nc23)cc1 [Compound 1k] | 1.65 ± 0.36 | 3.18 ± 0.68 | > 12.5 | 0.77 ± 0.1 | 4.29 ± 0.52 | 12.8 | 14.0 | 8.3 | 12.0 | 0.4
5 | c1ccc(-c2cc(CNCCN3CCOCC3)nc3c2ccc2c(-c4ccccc4)cc(CNCCN4CCOCC4)nc23)cc1 [Compound 1h] | 0.17 ± 0.05 | 0.67 ± 0.21 | 4.5 ± 2.2 | 0.22 ± 0.06 | 5.89 ± 0.53 | 1.8 | 1.9 | 2.2 | 2.0 | −0.9
6 | CN(C)CCCNCc1cc(-c2ccccc2)c2ccc3c(-c4ccccc4)cc(CNCCCN(C)C)nc3c2n1 [Compound 1b, 2,9-Bis[(3-dimethylaminopropyl)aminomethyl]-4,7-diphenyl-1,10-phenanthroline] | 6.13 ± 1.63 | 21.2 ± 7.72 | > 12.5 | 0.57 ± 0.07 | 5.96 ± 0.2 | 7.4 | 7.9 | 8.7 | 12.8 | −0.3
7 | c1ccc(-c2cc(CNCCCc3ccncc3)nc3c2ccc2c(-c4ccccc4)cc(CNCCCc4ccncc4)nc23)cc1 [Compound 1p] | 0.145 ± 0.04 | 1.02 ± 0.35 | > 12.5 | 0.65 ± 0.05 | 3.04 ± 0.19 | 3.5 | 3.9 | 3.7 | 3.6 | −1.1
8 | c1ccc(-c2cc(CNCCc3cccnc3)nc3c2ccc2c(-c4ccccc4)cc(CNCCc4cccnc4)nc23)cc1 [Compound 1n] | 2.54 ± 0.36 | 0.71 ± 0.11 | 2.67 ± 0.8 | 0.43 ± 0.03 | 3.1 ± 0.19 | 2.9 | 5.3 | 5.2 | 4.6 | −0.3
9 | c1ccc(-c2cc(CNCCc3ccncc3)nc3c2ccc2c(-c4ccccc4)cc(CNCCc4ccncc4)nc23)cc1 [Compound 1o] | 1.87 ± 0.58 | 0.73 ± 0.19 | 2.69 ± 0.6 | 0.21 ± 0.01 | 19.1 ± 2.11 | 2.9 | 5.2 | 5.3 | 3.9 | −0.3
10 | c1ccc(-c2cc(CNCCCN3CCOCC3)nc3c2ccc2c(-c4ccccc4)cc(CNCCCN4CCOCC4)nc23)cc1 [Compound 1i] | 0.04 ± 0.01 | 1.45 ± 0.58 | > 12.5 | 0.29 ± 0.02 | 6.29 ± 1.06 | 6.7 | 6.7 | 6.0 | 8.2 | −1.5
11 | CN1CCN(CCCCNCc2cc(-c3ccccc3)c3ccc4c(-c5ccccc5)cc(CNCCCCN5CCN(C)CC5)nc4c3n2)CC1 [Compound 1g] | 2.48 ± 0.49 | 8.19 ± 3.53 | > 12.5 | 0.96 ± 0.13 | 16.8 ± 0.6 | 13.4 | 14.5 | 12.2 | 11.2 | −0.5
